Measurements published in patent EP4741392A1, “1H-PYRAZOLO[4,3-C]PYRIDINE COMPOUND, AND COMPOSITION THEREOF AND USE THEREOF” (Shenzhen TargetRx Co., Ltd., priority 2023, dated 2025).

Legend:
Format in all cases: cell-based
NIH/3T3 BTK WT cells = experiment: Phosphor-BTK(Y223) assay, adherent cells; settings: Mus musculus, NIH3T3, phosphorylated BTK Y223, NIH/3T3 BTK WT cells; read-out: NIH/3T3 BTK-WT pBTK
Experimental: (§1) The purpose of this assay was to simply, quickly and directly detect the level of endogenous BTK phosphorylation in cells.
(§2) The steps for handling adherent cells were as follows: • 1) NIH/3T3 BTK WT cells (7.5 k/well) and NIH/3T3 BTK C481S cells (10 k/well) were plated in a 96-well plate, respectively, and cultured at 37 °C and 5% CO2 overnight. • 2) A 3-fold final concentration gradient dilution of a compound was prepared, and 50 µL of it was taken and added to 100 µL of cell culture. 0.5% DMSO was used as a positive control for cell growth. • 3) The plate was incubated at 37 °C and 5% CO2 for 0.5 h. • 4) Na3VO4 at a final concentration of 1mM was added, and the plate was incubated at 37 °C and 5% CO2 for 2 hours. • 5) During the incubation, the following reagents were prepared: • 1x added lysis buffer: 3 vol ddH2O + 1 vol 4x lysis buffer + 100x blocking reagent. • p-BTK (Y223) cryptate-antibody and p-BTK (Y223) d2-antibody working solutions: 1 volume of each cryopreserved antibody (stored at - 20 °C) was added to 19 times the volume of assay buffer (stored at 4 °C). • 6) After the incubation was completed, the medium was removed and 50 µL of 1x added lysis buffer was added. The plate was centrifuged at 500 rpm at room temperature for 30 min. • 7) The lysate was mixed well and 16 µL of it was transferred to a 384-well plate. 1 × added lysis buffer was used as a blank control. • 8) 4 µL of pre-mixed working solutions of the two antibodies (cryptate Ab:d2 Ab = 1:1) was added, and the plate was sealed. • 9) The plate was incubated at room temperature overnight. 10) The plate was read at 665nm and 620nm using Biotek cytation3.0 microplate reader, and the ratio of 665/620nm of each well was calculated.
(§3) The IC50 (half-maximal phosphorylation inhibitory concentration) of the phosphorylated BTK Y223 of the compound was obtained using the following nonlinear fitting formula: Y = Bottom + (Top−Bottom)/(1+10^(∧)((LogIC50−X)*HillSlope)) [formula] • X: Log value of the compound concentration • Y: Inhibition rate (% inhibition) • Top: Maximum response • Bottom: Baseline response • HillSlope: Slope of the curve
(§4) The formula for calculating cell phosphorylation inhibition rate (inhibition rate %) was: Inhibition rate% = 1−(eachconcentrationwell-blankwell)/(positivecontrolwell−blankwell) [formula]

NIH/3T3 BTK C481S cells = experiment: Phosphor-BTK(Y223) assay, adherent cells; settings: Mus musculus, NIH3T3, phosphorylated BTK Y223, NIH/3T3 BTK C481S cells; read-out: NIH/3T3 BTK-C481S pBTK
Experimental: as §1, §2, §3, §4

Ramos cells with BTK WT = experiment: Phosphor-BTK(Y223) assay, suspended cells; settings: Homo sapiens, Ramos, phosphorylated BTK Y223, Ramos cells with BTK WT
Experimental: as §1
The steps for handling suspended cells were as follows: • 1) Ramos cells with BTK WT (2.5 k/well), BTK C481S (2.5 k/well), or BTK T474I (2.5 k/well) were plated in a 96-well plate, respectively. A compound of different concentration gradients was added using Tecan D300e, and the plate was incubated at 37 °C and 5% CO2 for 2 hours. • 2) 8.33 µL of 20 mM Na3VO4 was added to bring the final concentration to 5 mM, and the plate was incubated at 37 °C and 5% CO2 for 3 h. • 3) During the incubation, the following reagents were prepared: • 4x added lysis buffer: 24 vol 4x lysis buffer + 1 vol 25x blocking reagent. • p-BTK (Y223) cryptate-antibody and p-BTK (Y223) d2-antibody working solutions: 1 volume of each cryopreserved antibody (stored at - 20 °C) was added to 38 times the volume of assay buffer (stored at 4 °C), and mixed well. • 4) After the incubation was completed, 11.1 µL of 4x added lysis buffer was directly added. The plate was shaken at 800 rpm at room temperature for 30 min. • 5) The lysate was mixed well and 16 µL of it was transferred to a 384-well plate. 1 × added lysis buffer was used as a blank control. • 6) 4 µL of pre-mixed working solutions of the two antibodies (cryptate Ab:d2 Ab = 1:1) was added, and the plate was sealed. • 7) The plate was incubated at room temperature overnight. • 8) The plate was read at 665nm and 620nm using Biotek cytation3.0 microplate reader, and the ratio of 665/620nm of each well was calculated. Data analysis: IC50 was calculated using GraphPad Prism 7.0 software.
as §3, §4

IC50 (Ramos cells with BTK WT) [nM] | Structure (SMILES) | IC50 (NIH/3T3 BTK WT cells) [nM] | IC50 (NIH/3T3 BTK C481S cells) [nM]
> 50 | COc1ccc(F)cc1C(=O)NCc1ccc(-c2nc(C(C)C(F)(F)F)c(Br)c3[nH]nc(N)c23)cc1 (centres unmarked) [Example 4, N-(4-(3-amino-7-bromo-6-(1,1,1-trifluoropropan-2-yl)-1H-pyrazolo[4,3-c]pyridin-4-yl)benzyl)-5-fluoro-2-methoxybenzamide] | > 50 | > 50
> 50 | COc1ccc(F)cc1C(=O)NCc1ccc(-c2nc(C(C)C(F)(F)F)c(-c3ccccn3)c3[nH]nc(N)c23)cc1 (centres unmarked) [Example 5, N-(4-(3-amino-7-(pyridin-2-yl)-6-(1,1,1-trifluoropropan-2-yl)-1H-pyrazolo[4,3-c]pyridin-4-yl)benzyl)-5-fluoro-2-methoxybenzamide] | > 50 | > 50
> 50 | COc1ccc(F)cc1C(=O)NCc1ccc(-c2nc(C(C)C(F)(F)F)c(-c3cnccn3)c3[nH]nc(N)c23)cc1 (centres unmarked) [Example 8, N-(4-(3-amino-7-(pyrazin-2-yl)-6-(1,1,1-trifluoropropan-2-yl)-1H-pyrazolo[4,3-c]pyridin-4-yl)benzyl)-5-fluoro-2-methoxybenzamide] | > 50 | > 50
> 50 | COc1ccc(F)cc1C(=O)NCc1ccc(-c2nc(C(C)C(F)(F)F)c(-c3cncnc3)c3[nH]nc(N)c23)cc1 (centres unmarked) [Example 10, N-(4-(3-amino-7-(pyrimidin-5-yl)-6-(1,1,1-trifluoropropan-2-yl)-1H-pyrazolo[4,3-c]pyridin-4-yl)benzyl)-5-fluoro-2-methoxybenzamide] | > 50 | > 50
> 50 | COc1ccc(F)cc1C(=O)NCc1ccc(-c2nc(C(C)C(F)(F)F)c(-c3ccnnc3)c3[nH]nc(N)c23)cc1 (centres unmarked) [Example 11, N-(4-(3-amino-7-(pyridazin-4-yl)-6-(1,1,1-trifluoropropan-2-yl)-1H-pyrazolo[4,3-c]pyridin-4-yl)benzyl)-5-fluoro-2-methoxybenzamide] | > 50 | > 50
> 50 | COc1ccc(F)cc1C(=O)NCc1ccc(-c2nc(C(C)C(F)(F)F)c(-c3ccc(C(F)(F)F)cn3)c3[nH]nc(N)c23)cc1 (centres unmarked) [Example 12, N-(4-(3-amino-7-(5-(trifluoromethyl)pyridin-2-yl)-6-(1,1,1-trifluoropropan-2-yl)-1H-pyrazolo[4,3-c]pyridin-4-yl)benzyl)-5-fluoro-2-methoxybenzamide] | > 50 | > 50
> 50 | COc1ccc(F)cc1C(=O)NCc1ccc(-c2nc(C(C)C(F)(F)F)c(-c3ccc(F)cn3)c3[nH]nc(N)c23)cc1 (centres unmarked) [Example 13, N-(4-(3-amino-7-(5-fluoropyridin-2-yl)-6-(1,1,1-trifluoropropan-2-yl)-1H-pyrazolo[4,3-c]pyridin-4-yl)benzyl)-5-fluoro-2-methoxybenzamide] | > 50 | > 50
> 50 | COc1ccc(F)cc1C(=O)NCc1ccc(-c2nc(C(C)C(F)(F)F)c(-c3ccccc3)c3[nH]nc(N)c23)cc1 (centres unmarked) [Example 14, N-(4-(3-amino-7-phenyl-6-(1,1,1-trifluoropropan-2-yl)-1H-pyrazolo[4,3-c]pyridin-4-yl)benzyl)-5-fluoro-2-methoxybenzamide] | > 50 | > 50
> 50 | COc1ccc(F)cc1C(=O)NCc1ccc(-c2ncc(-c3cncnc3)c3[nH]nc(N)c23)cc1 [Example 16, N-(4-(3-amino-7-(pyrimidin-5-yl)-1H-pyrazolo[4,3-c]pyridin-4-yl)benzyl)-5-fluoro-2-methoxybenzamide] | > 50 | > 50
> 50 | COc1ccc(F)cc1C(=O)NCc1ccc(-c2ncc(-c3ccnnc3)c3[nH]nc(N)c23)cc1 [Example 20, N-(4-(3-amino-7-(pyridazin-4-yl)-1H-pyrazolo[4,3-c]pyridin-4-yl)benzyl)-5-fluoro-2-methoxybenzamide] | > 50 | > 50
> 50 | COc1ccc(F)cc1C(=O)NCc1ccc(-c2ncc(-c3ccnn3C)c3[nH]nc(N)c23)cc1 [Example 32, N-(4-(3-amino-7-(1-methyl-1H-pyrazol-5-yl)-1H-pyrazolo[4,3-c]pyridin-4-yl)benzyl)-5-fluoro-2-methoxybenzamide] | > 50 | > 50
> 50 | COc1ccc(F)cc1C(=O)NCc1ccc(-c2ncc(-c3cnn4ccccc34)c3[nH]nc(N)c23)cc1 [Example 33, N-(4-(3-amino-7-(pyrazolo[1,5-a]pyridin-3-yl)-1H-pyrazolo[4,3-c]pyridin-4-yl)benzyl)-5-fluoro-2-methoxybenzamide] | > 50 | > 50
> 50 | COc1ccc(F)cc1C(=O)NCc1ccc(-c2ncc(-c3cnc4ccnn4c3)c3[nH]nc(N)c23)cc1 [Example 34, N-(4-(3-amino-7-(pyrazolo[1,5-a]pyrimidin-6-yl)-1H-pyrazolo[4,3-c]pyridin-4-yl)benzyl)-5-fluoro-2-methoxybenzamide] | > 50 | > 50
10 to 50 | COc1ccc(F)cc1C(=O)NCc1ccc(-c2ncc(-c3cccnn3)c3[nH]nc(N)c23)cc1 [Example 40, N-(4-(3-amino-7-(pyridazin-3-yl)-1H-pyrazolo[4,3-c]pyridin-4-yl)benzyl)-5-fluoro-2-methoxybenzamide] | 10 to 50 | > 50
> 50 | COc1ccc(F)cc1C(=O)NCc1ccc(-c2ncc(-c3cnc4ccccn34)c3[nH]nc(N)c23)cc1 [Example 55, N-(4-(3-amino-7-(imidazo[1,2-a]pyridin-3-yl)-1H-pyrazolo[4,3-c]pyridin-4-yl)benzyl)-5-fluoro-2-methoxybenzamide] | > 50 | > 50
> 50 | COc1ccc(F)cc1C(=O)NCc1ccc(-c2ncc(-c3cnc4ncccn34)c3[nH]nc(N)c23)cc1 [Example 63, N-(4-(3-amino-7-(imidazo[1,2-a]pyrimidin-3-yl)-1H-pyrazolo[4,3-c]pyridin-4-yl)benzyl)-5-fluoro-2-methoxybenzamide] | > 50 | > 50
> 50 | COc1ccc(F)cc1C(=O)NCc1ccc(-c2ncc(-c3cnc4cnccn34)c3[nH]nc(N)c23)cc1 [Example 64, N-(4-(3-amino-7-(imidazo[1,2-a]pyrazin-3-yl)-1H-pyrazolo[4,3-c]pyridin-4-yl)benzyl)-5-fluoro-2-methoxybenzamide] | > 50 | > 50
> 50 | COc1ccc(F)cc1C(=O)NCc1ccc(-c2ncc(C(=O)NC3CC3)c3[nH]nc(N)c23)cc1 [Example 81, 3-amino-N-cyclopropyl-4-(4-((5-fluoro-2-methoxybenzoylamino)methyl)phenyl)-1H-pyrazolo[4,3-c]pyridine-7-carboxamide] | > 50 | > 50
 | COc1ccc(F)cc1C(=O)NCc1ccc(-c2cc(C(C)C(F)(F)F)cc3[nH]nc(N)c23)cc1 (centres unmarked) [Example 86, N-(4-(3-amino-6-(1,1,1-trifluoropropan-2-yl)-1H-indazol-4-yl)benzyl)-5-fluoro-2-methoxybenzamide] | > 50 | > 50
